Assay results from patent publication US6894063B2, “Substituted urea neuropeptide Y Y5 Receptor antagonists” (Schering Corporation, priority 2000, dated 2005).

Tested on: D-Trp34-NPY stimulated food intake
Assay: Screening for Y5 antagonist activity in vivo: D-Trp34-NPY stimulated food intake in rats
Set-up: species or system Long-Evans or Sprague-Dawley rats
Settings: rat, oral doses 0.1, 0.3, 1 and 3 mg/kg one hour before icv D-Trp34-NPY; food consumption monitored at 60, 120 and 240 min
Description: Method for Screening Compound 14 of Example 14 for Y5 Antagonist Activity In Vivo
Adult male Long-Evans or Sprague-Dawley rats (200-250 g, Charles River, Mass.) were maintained in individual cages at 22° C. on a 12 hr light/12 hr dark cycle with lights on at 0400. Rats had free access to food (Teklad Lab Rodent Chow, Bartonville, Ill.) and water. All studies were conducted in an AAALAC accredited facility following protocols approved by the Animal Care and Use Committee of the Schering-Plough Research Institute. The procedures were performed in accordance with the principles and guidelines established by the NIH for the care and use of laboratory animals.
Rats were anesthetized by intramuscular injection of a mixture of ketamine and xylazine (100 and 10 mg/kg, respectively). A 22 gauge stainless steel cannula was stereotaxically implanted into the lateral ventricle using the following coordinates: 1 mm posterior to bregma, 1.5 mm lateral to midline, 3.6 mm ventral to dura. After a three week recovery period, all animals were tested for correct cannula placement by intracerebroventricular (icv) infusion of human NPY ([…]). […] Food consumption was monitored at 60, 120 and 240 min after icv infusion of peptides. Differences in food intake between groups were determined by analysis of variance followed by Dunnett's multiple comparison test.

CN(C(=O)Nc1ccc(-c2cc(F)cc(F)c2)cc1)C1CCN(c2nccs2)CC1 [Example 14]
ID50, inhibition of D-Trp34-NPY stimulated food intake: 0.5 mg/kg
